Data reported in US4307108A, “Method for lowering sorbitol levels using spiro-imides” (Pfizer Inc., priority 1979, dated 1981).
Where a name gives a salt, the structure may show the parent alone.

How the values were obtained:
[1] = system: sorbitol accumulation in the sciatic nerve of streptozotocinized (i.e., diabetic) rats; assay: reduction/inhibition of sorbitol accumulation in the sciatic nerve of acutely streptozotocinized (diabetic) rats; type: in vivo; conditions: for Percent Inhibition (%): oral, 4, 8 and 24 hours after streptozotocin, sorbitol in sciatic nerve measured 27 hours after induction of diabetes, vs. untreated animal
Protocol: The activity of the compounds of the present invention, as agents for the control of chronic diabetic complications, is determined by their ability to successfully pass one or more of the following standard biological and/or pharmacological tests, viz., (1) measuring their ability to reduce or inhibit sorbitol accumulation in the sciatic nerve of acutely streptozotocinized (i.e., diabetic) rats; (2) measuring their ability to reverse already-elevated sorbitol levels in the sciatic nerve and lens of chronic streptozotocin-induced diabetic rats; (3) measuring their ability to prevent or inhibit galactitol formation in the lens of acutely galactosemic rats, and (4) measuring their ability to delay cataract formation and reduce the severity of lens opacities in chronic galactosemic rats.
The following spiro-imide compounds of Preparation C and Examples 1-5, respectively, were tested for their ability to reduce or inhibit sorbitol accumulation in the sciatic nerve of streptozotocinized (i.e., diabetic) rats essentially by the procedure described in U.S. Pat. No. 3,821,383. In the present study, the amount of sorbitol accumulation in the sciatic nerves was measured 27 hours after induction of diabetes. The compounds were administered orally at the dose levels indicated 4, 8 and 24 hours following the administration of streptozotocin. The results obtained in this manner are presented below in terms of percent inhibition (%) afforded by the test compound as compared to the case where no compound was administered (i.e., the untreated animal where sorbitol levels normally rise from approximately […]. tissue to as high as […]. tissue in the 27-hour test period): […]

water solubility of salt = type: physicochemical; conditions: sodium salt, amorphous powder, freeze-dried
[2] = toxic side effects in diabetic rats on oral administration; type: in vivo; conditions: dose level as low as 2.5 mg./kg.
Text: As previously indicated, the spiro-imide compounds of this invention reduce lens sorbitol levels in diabetic subjects. […] The other compounds of this invention also cause similar results. Furthermore, the herein described compounds can be administered by either the oral or parenteral routes of administration without causing any significant untoward pharmacological side reactions in the subjects to whom they are so administered. These compounds are ordinarily administered in dosages ranging from about 0.25 mg. to about 25 mg. per kg. of body weight per day, although variations will necessarily occur depending upon the actual condition of the subject being treated and the particular route of administration chosen.

For `O=C1CC2(CCOc3ccc(Cl)cc32)C(=O)N1` (stereo not drawn) [Product of Ex. 2, 6-chloro-2,3-dihydro-spiro-[4H-1-benzopyran-4,3'-pyrrolidine]-2',5'-dione], the “Percent Inhibition (%)” value ([1]; 5.0 mg./kg.) was 13%.
In the case of `O=C1CC2(Cc3ccccc3C2)C(=O)N1` [Product of Ex. 3, 2,3-dihydro-spiro-[1H-indene-2,3'-pyrrolidine]-2',5'-dione], the “Percent Inhibition (%)” value ([1]; 25 mg./kg.) is reported as 33%.
With `O=C1CC2(CCCc3ccccc32)C(=O)N1` (stereo not drawn) [Product of Prep. C, 3,4-dihydro-spiro-[2H-naphthalene-1,3'-pyrrolidine]-2',5'-dione] the “Percent Inhibition (%)” value ([1]; 5.0 mg./kg.) was 46%.
In the case of `O=C1CC2(CCc3ccccc32)C(=O)N1` (stereo not drawn) [sodium salt of 3,4-dihydro-spiro-[1H-indene-1,3'-pyrrolidino]-2',5'-dione], the solubility in water (water solubility of salt) is reported as “freely-soluble in water”.
With `O=C1CC2(CCCc3sccc32)C(=O)N1` (stereo not drawn) [Product of Ex. 4, 6,7-dihydro-spiro-[5H-benzo(b)thiophene-4,3'-pyrrolidine]-2',5'-dione] the “Percent Inhibition (%)” value ([1]; 25 mg./kg.) was 51%.
For `O=C1CCC2(CCCc3ccccc32)C(=O)N1` (stereo not drawn) [Product of Ex. 5, 3,4-dihydro-spiro-[2H-naphthalene-1,3'-piperidine]-2',6'-dione], the “Percent Inhibition (%)” value ([1]; 25 mg./kg.) was 23%.
In the case of `O=C1CC2(CCc3ccccc32)C(=O)N1` (stereo not drawn) [Product of Ex. 1, 2,3-dihydro-spiro-[1H-indene-1,3'-pyrrolidine]-2',5'-dione], the “substantial signs of toxic side effects” value [2] is reported as “without showing any substantial signs of toxic side effects”, the “Percent Inhibition (%)” value ([1]; 2.5 mg./kg.) is reported as 28% and the “inhibit the formation of sorbitol levels in the sciatic nerve of diabetic rats” value ([1]; oral, dose level as low as 2.5 mg./kg., result in words) is reported as “to a significant degree”.
